# From PMC11271275, “The structural insight into the functional modulation of human anion exchanger 3” (Nature Communications, 2024)
# T1: AE2 (human SLC4A2) (Homo sapiens, UniProt P04920)
# T1 sequence (P04920 1-1241): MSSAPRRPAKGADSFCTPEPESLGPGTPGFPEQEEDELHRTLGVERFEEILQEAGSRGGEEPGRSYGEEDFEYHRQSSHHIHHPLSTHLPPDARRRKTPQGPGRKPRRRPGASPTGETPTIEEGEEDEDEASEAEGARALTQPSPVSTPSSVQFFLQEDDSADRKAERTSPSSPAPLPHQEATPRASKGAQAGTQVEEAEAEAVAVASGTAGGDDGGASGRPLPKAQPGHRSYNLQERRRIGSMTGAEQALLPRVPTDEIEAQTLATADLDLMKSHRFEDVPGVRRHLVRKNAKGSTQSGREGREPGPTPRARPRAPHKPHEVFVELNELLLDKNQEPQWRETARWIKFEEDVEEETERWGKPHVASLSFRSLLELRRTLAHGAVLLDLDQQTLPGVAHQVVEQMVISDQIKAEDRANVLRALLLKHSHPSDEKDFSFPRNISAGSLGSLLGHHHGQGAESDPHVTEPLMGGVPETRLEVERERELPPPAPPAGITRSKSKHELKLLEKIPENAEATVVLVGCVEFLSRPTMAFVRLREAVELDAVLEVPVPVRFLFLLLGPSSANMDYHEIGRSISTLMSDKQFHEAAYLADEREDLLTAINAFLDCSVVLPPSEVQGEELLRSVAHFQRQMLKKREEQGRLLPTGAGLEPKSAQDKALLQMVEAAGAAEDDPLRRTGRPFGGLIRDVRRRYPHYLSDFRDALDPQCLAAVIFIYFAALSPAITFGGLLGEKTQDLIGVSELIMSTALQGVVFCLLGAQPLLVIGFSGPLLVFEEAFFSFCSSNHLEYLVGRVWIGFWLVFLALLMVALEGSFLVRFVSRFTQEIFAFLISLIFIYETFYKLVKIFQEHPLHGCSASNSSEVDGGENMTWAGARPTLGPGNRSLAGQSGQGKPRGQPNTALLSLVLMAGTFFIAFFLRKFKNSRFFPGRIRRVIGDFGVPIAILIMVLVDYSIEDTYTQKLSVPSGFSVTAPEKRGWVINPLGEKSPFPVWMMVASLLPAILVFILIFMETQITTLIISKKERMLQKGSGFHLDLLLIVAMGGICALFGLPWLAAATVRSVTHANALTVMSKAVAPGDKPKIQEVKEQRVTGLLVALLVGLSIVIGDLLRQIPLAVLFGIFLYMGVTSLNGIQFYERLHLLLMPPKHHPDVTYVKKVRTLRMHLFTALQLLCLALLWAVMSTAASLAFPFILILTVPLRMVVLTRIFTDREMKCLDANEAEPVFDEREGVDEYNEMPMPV
# B1: human anion exchanger 3, cardiac isoform (hAE3) (natural protein, UniProt P48751-1 300-1232, looked up)
# chain: GLAPILRRKKKKKKLDRRPHEVFVELNELMLDRSQEPHWRETARWIKFEEDVEEETERWGKPHVASLSFRSLLELRRTIAHGAALLDLEQTTLPGIAHLVVETMIVSDQIRPEDRASVLRTLLLKHSHPNDDKDSGFFPRNPSSSSMNSVLGNHHPTPSHGPDGAVPTMADDLGEPAPLWPHDPDAKEKPLHMPGGDGHRGKSLKLLEKIPEDAEATVVLVGCVPFLEQPAAAFVRLNEAVLLESVLEVPVPVRFLFVMLGPSHTSTDYHELGRSIATLMSDKLFHEAAYQADDRQDLLSAISEFLDGSIVIPPSEVEGRDLLRSVAAFQRELLRKRREREQTKVEMTTRGGYTAPGKELSLELGGSEATPEDDPLLRTGSVFGGLVRDVRRRYPHYPSDLRDALHSQCVAAVLFIYFAALSPAITFGGLLGEKTEGLMGVSELIVSTAVLGVLFSLLGAQPLLVVGFSGPLLVFEEAFFKFCRAQDLEYLTGRVWVGLWLVVFVLALVAAEGSFLVRYISPFTQEIFAFLISLIFIYETFYKLYKVFTEHPLLPFYPPEGALEGSLDAGLEPNGSALPPTEGPPSPRNQPNTALLSLILMLGTFFIAFFLRKFRNSRFLGGKARRIIGDFGIPISILVMVLVDYSITDTYTQKLTVPTGLSVTSPDKRSWFIPPLGSARPFPPWMMVAAAVPALLVLILIFMETQITALIVSQKARRLLKGSGFHLDLLLIGSLGGLCGLFGLPWLTAATVRSVTHVNALTVMRTAIAPGDKPQIQEVREQRVTGVLIASLVGLSIVMGAVLRRIPLAVLFGIFLYMGVTSLSGIQLSQRLLLILMPAKHHPEQPYVTKVKTWRMHLFTCIQLGCIALLWVVKSTAASLAFPFLLLLTVPLRHCLLPRLFQDRELQALDSEDAEPNFDEDGQDEYNELHMPV
# notes: Anion exchanger 3 (AE3, SLC4A3), human, cardiac isoform; amino acids 300-1232 by the numbering of UniProt P48751-1 (results); the methods name the cDNA as human Cardiac Anion Exchanger 3, UniProt P48751-2; the introduction says cAE3 lacks residues 1-296 of bAE3; A TEV protease site follows the N-terminal tags in the modified pCAGGS vector; no cleavage is described; The N-terminal domain was not …
# How the values were obtained:
# AE2 (human SLC4A2) [1] = molecular target: T1, AE2 (human SLC4A2); test: BCECF intracellular pH assay on Cl- reintroduction, SLC4A2-KO HEK293F cells; format: cell-based; set-up: overexpressed in SLC4A2-KO HEK293F cells; P04920-1 printed for the AE2 part of the chimera; details: 40 µM DIDS; 25 mM NaHCO3, pH 7.4
# AE2 (human SLC4A2) [2] = molecular target: T1, AE2 (human SLC4A2); details: Cl-/HCO3- exchange; 25 mM NaHCO3, pH 7.4
# [3] = molecular target: hAE3^NTD2^TMD chimera (NTD of hAE3 fused to TMD of hAE2) (human) (UniProt P04920); test: cryo-EM structure; hAE3^NTD2^TMD chimera in GDN; 300 kV Titan Krios, C2 symmetry; 3.35 Å; TMDs inward-facing
# [4] = molecular target: the molecule itself; test: SEC + other: 200 kV cryo-EM analysis; Superose 6 Increase 10/300 GL, 150 mM NaCl, 20 mM HEPES pH 7.4, 0.01% GDN, 4 °C; protein solubilised with LMNG
molecule,measurement,setting,value
"O=S(=O)(O)c1cc(N=C=S)ccc1/C=C/c1ccc(N=C=S)cc1S(=O)(=O)O [DIDS, 4,4’-diisothiocyanatostilbene-2,2’-disulfonate]",inhibition at 40 μM,AE2 (human SLC4A2) [1],activities of AE2 and AE3 could be inhibited by adding DIDS
O=C(O)O [HCO3^−],"BCECF intracellular pH assay on Cl- reintroduction, SLC4A2-KO HEK293F cells",AE2 (human SLC4A2) [2],a lower pH-modulating function than that observed for AE2
hAE3^NTD2^TMD chimera (NTD of hAE3 fused to TMD of hAE2) (from UniProt P04920-1 672-1241),stoichiometry N,[3],2
B1,stoichiometry N,[4],2
